From patent publication US10906876B2, “Tetrahydroisoquinolines as selective NADPH oxidase 2 inhibitors” (University of Pittsburgh—Of the Commonwealth System of …, priority 2013, dated 2021)

How the values were obtained:
[1] = molecular target: T1, Nox1 (Homo sapiens, UniProt Q9Y5S8); test: Constitutive Nox1 activity in transiently transfected COS-Nox1/NOXO1/NOXA1 cells, L-012 assay; type: cell-based; conditions: for Nox1 inhibitory activity: Table 2; for IC50: constitutive activity, transiently transfected Cos-Nox1 cells, L-012, read-out: IC50 of ROS generation, Nox1 (L-012 assay)
T1 construct: Plasmids encoding full-length human cDNAs for Nox1 (pcDNA3.1-hNox1); expressed in transfected cells; host or cells: COS-22 (COS-7 stably expressing human p22phox), transient co-transfection
T1 sequence (Q9Y5S8 1-564): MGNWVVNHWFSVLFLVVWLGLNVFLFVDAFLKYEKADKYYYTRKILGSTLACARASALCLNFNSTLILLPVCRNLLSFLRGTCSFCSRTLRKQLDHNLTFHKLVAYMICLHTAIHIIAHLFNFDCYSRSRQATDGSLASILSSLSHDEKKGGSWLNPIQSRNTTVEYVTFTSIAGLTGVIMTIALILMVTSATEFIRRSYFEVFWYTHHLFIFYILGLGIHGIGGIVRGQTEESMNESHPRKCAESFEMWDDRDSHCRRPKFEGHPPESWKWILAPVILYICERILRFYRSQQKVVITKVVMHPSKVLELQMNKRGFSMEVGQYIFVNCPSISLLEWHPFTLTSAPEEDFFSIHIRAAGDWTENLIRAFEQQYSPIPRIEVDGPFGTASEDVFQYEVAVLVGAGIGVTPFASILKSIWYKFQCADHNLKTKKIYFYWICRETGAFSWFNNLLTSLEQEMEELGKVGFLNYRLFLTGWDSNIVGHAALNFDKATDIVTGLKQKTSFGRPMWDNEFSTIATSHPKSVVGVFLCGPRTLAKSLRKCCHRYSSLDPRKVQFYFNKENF
T1 sequence (P13498 2-195 partner limits assumed): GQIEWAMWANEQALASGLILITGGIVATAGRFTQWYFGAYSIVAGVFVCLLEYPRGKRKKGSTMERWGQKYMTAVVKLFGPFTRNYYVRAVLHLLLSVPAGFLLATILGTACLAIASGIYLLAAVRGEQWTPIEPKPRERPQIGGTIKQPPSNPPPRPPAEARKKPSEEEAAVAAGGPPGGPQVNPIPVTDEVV
Description: Plasmids encoding full-length human cDNAs for Nox1 (pcDNA3.1-hNox1), NOXO1 (pcDNA3.1-hNOXO1), NOXA1 (pCMVsport 6-hNOXA1), p47phox (pCMV-Tag4A-hp47) and Nox4 (pcDNA3-hNox4) were kindly provided by Dr. David Lambeth (Emory University, Ga.). Plasmids encoding Nox1, NOXO1, or NOXA1 were transformed and amplified into Escherichia coli strain TOP10 (Invitrogen, Carlsbad, Calif.). Plasmids were purified using a QIAfilter plasmid purification kit (QIAGEN Inc., Valencia, Calif.). For human Nox4 expression, the BglII/NotI restriction fragment from the pcDNA3-hNox4 was subcloned into the plasmid pcDNA3.1/Hygro(−) (Invitrogen, Carlsbad, Calif.) to generate pcDNA3.1/Hygro-hNox4. The fragment sequence, in-frame insertion and orientation were validated by DNA sequencing after PCR amplification. pcDNA3.1/Hygro-hNox4 was amplified into Escherichia coli strain TOP10 and purified with a QIAfilter plasmid purification kit.
Cell transfection was carried out using Lipofectamine LTX and Plus reagent (Invitrogen, Carlsbad, Calif., USA), according to the manufacturer's instructions. COS-22 cells were transiently co-transfected with pcDNA 3.1-hNox1, pCMVsport 6-hNOXA1 and pcDNA3.1-hNoxO1 (COS-Nox1/NOXO1/NOXA1 cells) or with pcDNA3.1/Hygro-hNox4 (COS-Nox4 cells). Cells were used 24 hr after transfection. Adherent cells were harvested by incubating with 0.05% trypsin/EDTA for 5 min at 37° C. Following addition of DMEM/10% FBS to neutralize the trypsin, the cells were pelleted by centrifugation at 1100×g for 5 min at 4° C. and used for the experiments.
COS-Nox2, COS-Nox1/NOXO1/NOXA1, HEK-Nox5 and COS-22 cells were re-plated in OPTIMEM into 384-well white micro-plates (Greiner-Bio One GmbH, Germany) at a density of 2.5×10^3 cells/well for COS-Nox2 and 5×10^4 cells/well for all others. The cells were incubated at 37° C. in PBS containing […] L-012 for 10 min. Reaction was initiated by addition of 5 μM PMA in the case of Nox2 or 1 μM PMA/0.1 μM Ionomycin in the case of Nox5. Since Nox1 was constitutively active, Nox1-derived O2^•− was assessed by comparison to non-transfected cells (Cos22). Luminescence was quantified over time using a Biotek Synergy 4 Hybrid Multi-Mode Microplate Reader. The specificity of L-012 for O2^•− was confirmed by the addition of SOD (150 U/mL).
All data are expressed as means±SEM. IC50 values were determined using the GraphPad Prism software (GraphPad Software, San Diego, Calif.) for non-linear regression three-parameters, with constrain values of 100 and 0 for top and bottom, respectively, and assumes a Hill slope of 1.

[2] = test system: cells; test: Cytotoxicity assay (CytoTox-Glo); type: cell-based; conditions: highest concentration tested (25 and 50 μM tested, FIG. 5)
Experimental: The cytotoxic effect of compounds was tested using CytoTox-Glo kit (Promega, Madison, Wis.). This assay uses a luminogenic peptide substrate, the AAF-Glo™ Substrate, to measure dead-cell protease activity, which is released from cells that have lost membrane integrity. Cells were plated in 384-well plate at 2.5×10^3 cells/well in OPTIMEM, incubated for 15 min with the compounds at various concentrations and then carried out dead cell measurements according to manufacturer protocol. […] signals before and after the addition of digitonin were used to calculate the % of dead cells in each independent well.
Another undesirable side effect would be the reduction of ROS production in the assays due to cell death rather than an inhibition of Nox2. To verify that this was not the case for these tetrahydroisoquinolines, the effect of various concentrations of the compounds on cell viability was determined using a commercially available CytoTox-Glo assay (Promega). This assay measures the concentration of proteases released from cells that have lost membrane integrity (i.e., dead cells). Data are expressed as % of live cells in each independent well (=100−% dead cells).

SMILES | Nox1 inhibitory activity [1] | IC50 [1] | Effect on cell viability [2]
C=C(C)CC1NC2CC(C)(C)C1c1c(Br)cccc12 (racemic) [Compound 7, (±)-(1S,4R,9S)-5-Bromo-3,3-dimethyl-9-(2-methylallyl)-1,2,3,4-tetrahydro-1,4-(epimino-methano)-naphthalene] | active | 31 ± 0.7 µM | had any effect on cell viability
C=C(C)CC1NC2CC(C)(C)C1c1ccccc12 (racemic) [Compound 8, (±)-(1S,4R,9S)-3,3-Dimethyl-9-(2-methylallyl)-1,2,3,4-tetrahydro-1,4-(epiminomethano)-naphthalene] | inactive | > 100 µM | –
C=C(C)CC1C2c3ccccc3C(CC2(C)C)N1Cc1cccc(F)c1 (racemic) [Compound 11a, (±)-(1S,4R,9S)-10-(3-Fluorobenzyl)-3,3-dimethyl-9-(2-methylallyl)-1,2,3,4-tetrahydro-1,4-(epiminomethano)naphthalene] | – | > 100 µM | –
C=C(C)CC1C2c3c(Br)cccc3C(CC2(C)C)N1Cc1ccnc2ccccc12 (racemic) [Compound 11b, (±)-(1S,4R,9S)-5-Bromo-3,3-dimethyl-9-(2-methylallyl)-10-(quinolin-4-ylmethyl)-1,2,3,4-tetra-hydro-1,4-(epiminomethano)naphthalene] | – | > 100 µM | –
C=C(C)CC1C2c3c(Br)cccc3C(CC2(C)C)N1Cc1c[nH]c2ccccc12 (racemic) [Compound 11c, (±)-(1S,4R,9S)-10-((1H-Indol-3-yl)methyl)-5-bromo-3,3-dimethyl-9-(2-methylallyl)-1,2,3,4-tetrahydro-1,4-(epiminomethano)naphthalene] | – | > 100 µM | –
C=C(C)CC1C2c3c(Br)cccc3C(CC2(C)C)N1Cc1ccc2c(c1)OCO2 (racemic) [Compound 11d, (±)-(1S,4R,9S)-10-(Benzo[d][1,3]dioxol-5-ylmethyl)-5-bromo-3,3-dimethyl-9-(2-methylallyl)-1,2,3,4-tetrahydro-1,4-(epiminomethano)naphthalene] | – | > 100 µM | –
C=C(C)CC1C2c3c(Br)cccc3C(CC2(C)C)N1Cc1cc(C)on1 (racemic) [Compound 11e, (±)-3-(1S,4R,9S)-5-Bromo-3,3-dimethyl-9-(2-methylallyl)-1,2,3,4-tetrahydro-1,4-(epimino-methano) naphthalen-10-yl)methyl)-5-methylisoxazole] | – | > 100 µM | –
C=C(C)CC1C2c3c(Br)cccc3C(CC2(C)C)N1Cc1cccc(F)c1 (racemic) [Compound 11f, (±)-(1S,4R,9S)-5-Bromo-10-(3-fluorobenzyl)-3,3-dimethyl-9-(2-methylallyl)-1,2,3,4-tetrahydro-1,4-(epiminomethano)naphthalene] | – | > 100 µM | –
C=C(C)CC1C2c3c(Br)cccc3C(CC2(C)C)N1CCCCC (racemic) [Compound 11g, (±)-(1S,4R,9S)-5-Bromo-3,3-dimethyl-9-(2-methylallyl-10-pentyl-1,2,3,4-tetrahydro-1,4-(epiminomethano)naphthalene] | virtually no effect | > 100 µM | –
C=C(C)CC1C2c3c(Br)cccc3C(CC2(C)C)N1Cc1cccs1 (racemic) [Compound 11h, (±)-(1S,4R,9S)-5-Bromo-3,3-dimethyl-9-(2-methylallyl)-10-(thiophen-2-ylmethyl)-1,2,3,4-tetrahydro-1,4-(epiminomethano)naphthalene] | virtually no effect | > 100 µM | –
C=C(C)CC1NC2CC(C)(C)C1c1c(-c3ccc(Cl)c(Cl)c3)cccc12 (racemic) [Compound 12a, (±)-(1S,4R,9S)-5-(3,4-Dichlorophenyl)-3,3-dimethyl-9-(2-methylallyl)-1,2,3,4-tetrahydro-1,4-(epiminomethano)naphthalene] | – | > 100 µM | –
C=C(C)CC1C2c3c(-c4ccc(Cl)c(Cl)c4)cccc3C(CC2(C)C)N1Cc1ccc2c(c1)OCO2 (racemic) [Compound 12b, (±)-(1S,4R,9S)-10-(Benzo[d][1,3]dioxol-5-ylmethyl)-5-(3,4-dichlorophenyl)-3,3-dimethyl-9-(2-methylallyl)-1,2,3,4-tetrahydro-1,4-(epiminomethano)-naphthalene] | – | > 100 µM | –
C=C(C)CC1C2c3c(-c4ccc(Cl)c(Cl)c4)cccc3C(CC2(C)C)N1CCCCC (racemic) [Compound 12c] | – | > 100 µM | –
CC(C)CC1NC2CC(C)(C)C1c1c(Br)cccc12 (racemic) [Compound 13] | retained inhibitory activity | 32 ± 18 µM | had any effect on cell viability
C=C(C)CC1C2c3c(Br)cccc3C(CC2(C)C)N1S(C)(=O)=O (racemic) [Compound 14a, (±)-(1S,4R,9S)-5-Bromo-3,3-dimethyl-9-(2-methylallyl)-10-(methylsulfonyl)-1,2,3,4-tetrahydro-1,4-(epiminomethano)naphthalene] | – | > 100 µM | –
C=C(C)CC1C2c3c(Br)cccc3C(CC2(C)C)N1S(=O)(=O)c1ccc(F)cc1 (racemic) [Compound 14b, (±)-(1S,4R,9S)-5-Bromo-10-((4-fluorophenyl)sulfonyl)-3,3-dimethyl-9-(2-methylallyl)-1,2,3,4-tetrahydro-1,4-(epiminomethano)naphthalene] | – | > 100 µM | –
C=C(C)C[C@@H]1N[C@H]2CC(C)(C)[C@@H]1c1c(Br)ccc(Br)c12 [Compound 9] | active | 60 ± 36 µM | had any effect on cell viability
